Test results reported in US12703850B2, “Photostabilized compositions and a method for stabilizing photosensitive components” (Evonik Operations GmbH, priority 2022, dated 2026).
Where a SMILES comes first, the peptide text is derived from it.

How the values were obtained:
Assay type in all cases: physicochemical
[1] = Brown color index of solutions with 0.013 mM riboflavin exposed to day light, Example 2; details: for Color after exposure (in words): amino acid up to 32 mM, 7 days; for Brown color index in cell culture media (MEM) Day 7 / Brown color index in cell culture media (MEM) Day 0 / Brown color index in PBS Day 7 / Brown color index in PBS Day 0: with 0.013 mM riboflavin; for Brown color index in cell culture media (MEM) Day 7 / Brown color index in PBS Day 7: 7 days day light; for Brown colorization after exposure (in words): 2 mM, any type of aqueous solution used
Experimental: Aqueous solutions of 2.5 mM L-Tryptophan (Trp) and 0.013 mM riboflavin were prepared in phosphate-buffered saline (D-PBS) as well as in Minimal Essential Medium (MEM). These solutions were used to dissolve the dipeptides L-alanyl-L-tyrosine dihydrate (Ala-Tyr) and glycyl-L-tyrosine dihydrate (Gly-Tyr) as well as the amino acids L-tyrosine (Tyr), L-alanine (Ala), and glycine (Gly) at several concentrations to create solvent mixtures. In example 1, the dipeptides were tested at concentrations of 0.5 mM, 2.5 mM and 10 mM and Tyr at a concentration of 0.5 mM. PBS and MEM as well as 2.5 mM Trp dissolved in PBS and MEM were used as controls. In example 2, the dipeptides and Tyr were tested at a concentration of 2 mM, Ala and Gly at 32 mM, and the solvent (PBS or MEM) was used as control (“solvent background”).
(§1) The samples were exposed to electromagnetic radiation (day light) at room temperature for seven (example 2) as well as 14 days (example 1). A relative quantification of the brown color of the samples of example 1 was obtained by measuring the absorbance at 330 nm. The intensity of the brown color of samples of example 2 was determined by eye using a brown color index.
Aqueous solutions of PBS or MEM containing 0.013 mM riboflavin show a week fluorescent yellow-green color. Exposure to electromagnetic radiation at room temperature for seven days results in a brown colorization of the MEM solution, while the yellow-green color in PBS solutions vanished.

[2] = Brown color index of solutions without riboflavin exposed to day light, Example 2; details: for Color after exposure (in words): amino acid up to 32 mM, 7 days electromagnetic radiation; for Color after exposure (in words) / Brown color index in cell culture media (MEM) Day 7 / Brown color index in PBS Day 7: room temperature; for Brown color index in cell culture media (MEM) Day 7 / Brown color index in cell culture media (MEM) Day 0 / Brown color index in PBS Day 7 / Brown color index in PBS Day 0: without 0.013 mM riboflavin; for Brown color index in cell culture media (MEM) Day 7 / Brown color index in PBS Day 7: 7 days day light
Experimental: […] These solutions were used to dissolve the dipeptides L-alanyl-L-tyrosine dihydrate (Ala-Tyr) and glycyl-L-tyrosine dihydrate (Gly-Tyr) as well as the amino acids L-tyrosine (Tyr), L-alanine (Ala), and glycine (Gly) at several concentrations to create solvent mixtures. In example 1, the dipeptides were tested at concentrations of 0.5 mM, 2.5 mM and 10 mM and Tyr at a concentration of 0.5 mM. PBS and MEM as well as 2.5 mM Trp dissolved in PBS and MEM were used as controls. In example 2, the dipeptides and Tyr were tested at a concentration of 2 mM, Ala and Gly at 32 mM, and the solvent (PBS or MEM) was used as control (“solvent background”).
as §1
Other control solutions of PBS and MEM without riboflavin were colorless at day 0.

[3] = Brown colorization of tryptophan solutions exposed to day light (absorbance at 330 nm), Example 1; details: room temperature; for Effect on brown colorization compared with Tyr: 0.5 mM Tyr-dipeptide versus 0.5 mM Tyr; for Effect on brown colorization compared with Tyr / Effect on brown colorization of Trp solution: day light; for Effect on brown colorization of Trp solution: 14 days
Experimental: Aqueous solutions of 2.5 mM L-Tryptophan (Trp) and 0.013 mM riboflavin were prepared in phosphate-buffered saline (D-PBS) as well as in Minimal Essential Medium (MEM). These solutions were used to dissolve the dipeptides L-alanyl-L-tyrosine dihydrate (Ala-Tyr) and glycyl-L-tyrosine dihydrate (Gly-Tyr) as well as the amino acids L-tyrosine (Tyr), L-alanine (Ala), and glycine (Gly) at several concentrations to create solvent mixtures. […] PBS and MEM as well as 2.5 mM Trp dissolved in PBS and MEM were used as controls.
The intensity of the brown color was measured as absorbance difference at 330 nm.

[4] = 7 days electromagnetic radiation, room temperature
[5] = addition of 0.5 mM to 2.5 mM Trp in PBS or MEM, absorbance at 330 nm
[6] = dipeptide concentrations of up to 10 mM, 2.5 mM Trp in PBS or MEM

Row | Structure (SMILES) | Brown color index in cell culture media (MEM) Day 7 ([2]; sample 32 mM) | Brown color index in cell culture media (MEM) Day 0 ([2]; sample 32 mM) | Brown color index in PBS Day 7 ([2]; sample 32 mM) | Brown color index in PBS Day 0 ([2]; sample 32 mM) | Brown colorization after exposure (in words) [1, 4] | Brown color index in cell culture media (MEM) Day 7 ([1]; sample 2 mM, room temperature) | Brown color index in cell culture media (MEM) Day 0 ([1]; sample 2 mM) | Brown color index in PBS Day 7 ([1]; sample 2 mM, room temperature) | Brown color index in PBS Day 0 ([1]; sample 2 mM) | Effect on brown colorization of Trp solution [3, 5] | also measured
1 | C[C@H](N)C(=O)O [Ala, L-alanine] | 1 (week brown color) | 0 (no brown color) | 0 (no brown color) | 0 (no brown color) |  |  |  |  |  |  | Color after exposure (in words) ([1]; MEM with 0.013 mM riboflavin): normal brown; Color after exposure (in words) ([1]; PBS with 0.013 mM riboflavin): stayed colorless; Brown color index in cell culture media (MEM) Day 7 ([1]; sample 32 mM, room temperature): 3; Brown color index in cell culture media (MEM) Day 0 ([1]; sample 32 mM): 0 (no brown color); Brown color index in PBS Day 7 ([1]; sample 32 mM, room temperature): 0 (no brown color); Brown color index in PBS Day 0 ([1]; sample 32 mM): 0 (no brown color); Color after exposure (in words) ([2]; MEM without riboflavin): week brown; Color after exposure (in words) ([2]; PBS without riboflavin): stayed colorless
2 | C[C@H](N)C(=O)N[C@@H](Cc1ccc(O)cc1)C(=O)O.O.O [Ala-Tyr, L-alanyl-L-tyrosine dihydrate] (H-Ala-Tyr-OH) | 1 (week brown color) | 0 (no brown color) | 0 (no brown color) | 0 (no brown color) | normal brown color | 3 | 0 (no brown color) | 3 | 0 (no brown color) | reduce this colorization | Effect on brown colorization compared with Tyr ([3]; 2.5 mM Trp in PBS or MEM): the effect is greater; Effect on brown colorization of Trp solution [3, 6]: further reduction or even completely prevented the change in color
3 | NCC(=O)O [Gly, glycine] | 1 (week brown color) | 0 (no brown color) | 0 (no brown color) | 0 (no brown color) |  |  |  |  |  |  | Color after exposure (in words) ([1]; MEM with 0.013 mM riboflavin): normal brown; Color after exposure (in words) ([1]; PBS with 0.013 mM riboflavin): stayed colorless; Brown color index in cell culture media (MEM) Day 7 ([1]; sample 32 mM, room temperature): 3; Brown color index in cell culture media (MEM) Day 0 ([1]; sample 32 mM): 0 (no brown color); Brown color index in PBS Day 7 ([1]; sample 32 mM, room temperature): 0 (no brown color); Brown color index in PBS Day 0 ([1]; sample 32 mM): 0 (no brown color); Color after exposure (in words) ([2]; MEM without riboflavin): week brown; Color after exposure (in words) ([2]; PBS without riboflavin): stayed colorless
4 | NCC(=O)N[C@@H](Cc1ccc(O)cc1)C(=O)O.O.O [Gly-Tyr, glycyl-L-tyrosine dihydrate] (H-Gly-Tyr-OH) | 1 (week brown color) | 0 (no brown color) | 0 (no brown color) | 0 (no brown color) | normal brown color | 3 | 0 (no brown color) | 3 | 0 (no brown color) | reduce this colorization | Effect on brown colorization compared with Tyr ([3]; 2.5 mM Trp in PBS or MEM): the effect is greater; Effect on brown colorization of Trp solution [3, 6]: further reduction or even completely prevented the change in color
5 | N[C@@H](Cc1c[nH]c2ccccc12)C(=O)O [Trp, L-Tryptophan] |  |  |  |  |  |  |  |  |  |  | Color change on exposure to electromagnetic radiation ([3]; 2.5 mM Trp alone in PBS or MEM): strong color change towards brown color
6 | N[C@@H](Cc1ccc(O)cc1)C(=O)O [Tyr, L-tyrosine] |  |  |  |  | strong brown | 5 (strong brown color) | 0 (no brown color) | 5 (strong brown color) | 0 (no brown color) | reduce this colorization | Brown color index in cell culture media (MEM) Day 7 ([2]; sample 2 mM): 2 (moderate brown color); Brown color index in cell culture media (MEM) Day 0 ([2]; sample 2 mM): 0 (no brown color); Brown color index in PBS Day 7 ([2]; sample 2 mM): 0 (no brown color); Brown color index in PBS Day 0 ([2]; sample 2 mM): 0 (no brown color)
7 | Cc1cc2nc3c(=O)[nH]c(=O)nc-3n(C[C@H](O)[C@H](O)[C@H](O)CO)c2cc1C [riboflavin, (−)-Riboflavin] |  |  |  |  |  |  |  |  |  |  | Intensity of brown color (brown color index, in words) ([1]; 0.013 mM riboflavin alone in MEM, 7 days electromagnetic radiation, room temperature): normal brown color; Yellow-green color after exposure ([1]; 0.013 mM riboflavin alone in PBS, 7 days electromagnetic radiation, room temperature): vanished
